Data reported in ChEMBL document CHEMBL1201862, “PubChem BioAssay data set” (2004).
The source made the active and inactive calls.

What was measured:
[1] = target: Nuclear receptor subfamily 0 group B member 1 (Homo sapiens, UniProt P51843); assay: Luminescence-based cell-based high throughput dose response assay for inhibitors of the orphan nuclear receptor subfamily 0, group B, member 1 (DAX1; NR0B1). [Related pubchem assays (depositor defined):AID504766, AID504790]; assay type: functional
HEK293 [2] = assay: cells; assay type: functional, cell-based; details: Homo sapiens
[3] = target: Dual specificity protein kinase CLK1 (Homo sapiens, UniProt P49759); assay: inhibition of human CLK1 activity – biochemical, cherry-picked samples, selectivity assay for Dyrk1A inhibitor project, dose response (AID 588811)
Dual specificity protein kinase CLK1, sequence (P49759 whole entry): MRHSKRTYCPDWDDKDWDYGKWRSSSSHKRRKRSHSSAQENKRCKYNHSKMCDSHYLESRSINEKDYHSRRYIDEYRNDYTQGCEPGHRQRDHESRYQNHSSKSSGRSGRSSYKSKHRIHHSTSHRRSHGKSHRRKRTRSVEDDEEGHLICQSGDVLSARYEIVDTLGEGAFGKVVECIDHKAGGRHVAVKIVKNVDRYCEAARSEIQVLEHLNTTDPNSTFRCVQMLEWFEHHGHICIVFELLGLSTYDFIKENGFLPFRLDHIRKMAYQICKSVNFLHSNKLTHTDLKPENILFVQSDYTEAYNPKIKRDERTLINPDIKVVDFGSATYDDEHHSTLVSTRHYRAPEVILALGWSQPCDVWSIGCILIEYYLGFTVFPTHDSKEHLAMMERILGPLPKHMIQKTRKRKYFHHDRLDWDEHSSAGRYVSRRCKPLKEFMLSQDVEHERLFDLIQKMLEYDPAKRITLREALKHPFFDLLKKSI

DNA topoisomerase = DNA topoisomerase (Yersinia pestis, UniProt A0A2S9PM60); assay: Yersinia topoisomerase I cleavage product accumulation – biochemical, cherry-pick, dose response (AID 588525)
DNA topoisomerase, sequence (A0A2S9PM60 whole entry, the tested form may be a part): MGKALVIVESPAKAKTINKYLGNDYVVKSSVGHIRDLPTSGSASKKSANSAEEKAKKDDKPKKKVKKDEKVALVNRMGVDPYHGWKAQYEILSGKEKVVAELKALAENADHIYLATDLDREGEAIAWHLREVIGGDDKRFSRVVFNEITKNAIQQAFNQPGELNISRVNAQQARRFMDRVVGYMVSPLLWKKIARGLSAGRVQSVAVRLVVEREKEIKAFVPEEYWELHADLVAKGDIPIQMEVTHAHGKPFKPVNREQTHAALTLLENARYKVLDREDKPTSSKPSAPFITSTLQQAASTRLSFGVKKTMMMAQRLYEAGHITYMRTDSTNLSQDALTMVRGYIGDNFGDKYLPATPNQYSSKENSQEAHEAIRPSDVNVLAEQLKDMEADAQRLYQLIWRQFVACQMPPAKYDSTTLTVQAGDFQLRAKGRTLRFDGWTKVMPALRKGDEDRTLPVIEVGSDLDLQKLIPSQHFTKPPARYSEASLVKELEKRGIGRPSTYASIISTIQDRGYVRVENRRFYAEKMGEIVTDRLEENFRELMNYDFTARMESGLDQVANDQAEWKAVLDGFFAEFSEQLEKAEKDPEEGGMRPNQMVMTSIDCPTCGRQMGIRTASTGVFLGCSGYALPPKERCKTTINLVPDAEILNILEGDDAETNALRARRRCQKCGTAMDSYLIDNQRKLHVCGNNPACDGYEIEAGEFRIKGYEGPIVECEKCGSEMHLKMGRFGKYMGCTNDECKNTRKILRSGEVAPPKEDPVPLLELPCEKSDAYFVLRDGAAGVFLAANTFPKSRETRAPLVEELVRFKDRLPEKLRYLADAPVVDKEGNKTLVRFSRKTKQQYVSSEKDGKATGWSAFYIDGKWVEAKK

Hexokinase-1 = Hexokinase-1 (Homo sapiens, UniProt P19367); assay: SAR analysis of small molecule inhibitors of hexokinase domain containing I (HKDC1) in the hexokinase 1 selectivity assay. [Related pubchem assays (depositor defined):AID493160, AID493190]; assay type: functional
Hexokinase-1, sequence (P19367 whole entry, the tested form may be a part): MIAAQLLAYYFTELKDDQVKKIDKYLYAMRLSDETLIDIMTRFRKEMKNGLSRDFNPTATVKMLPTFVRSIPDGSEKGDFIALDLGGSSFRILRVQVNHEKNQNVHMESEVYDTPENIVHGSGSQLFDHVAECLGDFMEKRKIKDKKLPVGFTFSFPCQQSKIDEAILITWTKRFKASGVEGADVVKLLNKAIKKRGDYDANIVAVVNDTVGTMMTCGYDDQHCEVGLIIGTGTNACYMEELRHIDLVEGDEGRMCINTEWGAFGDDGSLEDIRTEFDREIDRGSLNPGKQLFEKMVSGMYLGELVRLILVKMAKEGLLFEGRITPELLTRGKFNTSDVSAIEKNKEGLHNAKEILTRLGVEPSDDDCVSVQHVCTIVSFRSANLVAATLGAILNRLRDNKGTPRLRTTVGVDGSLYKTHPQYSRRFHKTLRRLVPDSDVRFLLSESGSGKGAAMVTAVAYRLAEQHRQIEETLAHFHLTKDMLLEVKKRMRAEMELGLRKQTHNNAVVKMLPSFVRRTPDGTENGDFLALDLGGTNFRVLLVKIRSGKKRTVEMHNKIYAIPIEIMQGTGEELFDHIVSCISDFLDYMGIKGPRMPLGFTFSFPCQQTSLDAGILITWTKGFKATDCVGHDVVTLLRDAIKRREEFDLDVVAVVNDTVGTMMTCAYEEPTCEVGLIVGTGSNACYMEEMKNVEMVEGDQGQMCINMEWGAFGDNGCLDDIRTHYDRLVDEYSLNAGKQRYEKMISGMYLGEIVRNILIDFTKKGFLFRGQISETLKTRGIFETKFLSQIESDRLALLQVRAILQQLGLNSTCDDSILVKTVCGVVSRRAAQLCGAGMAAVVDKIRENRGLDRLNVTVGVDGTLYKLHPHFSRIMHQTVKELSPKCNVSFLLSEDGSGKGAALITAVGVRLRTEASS

Hexokinase HKDC1 = target: T1, Hexokinase HKDC1 (Homo sapiens, UniProt Q2TB90); assay: SAR analysis of small molecule inhibitors of hexokinase domain containing I (HKDC1). [Related pubchem assays (depositor defined):AID493160, AID493190]; assay type: functional
T1 sequence (Q2TB90 whole entry): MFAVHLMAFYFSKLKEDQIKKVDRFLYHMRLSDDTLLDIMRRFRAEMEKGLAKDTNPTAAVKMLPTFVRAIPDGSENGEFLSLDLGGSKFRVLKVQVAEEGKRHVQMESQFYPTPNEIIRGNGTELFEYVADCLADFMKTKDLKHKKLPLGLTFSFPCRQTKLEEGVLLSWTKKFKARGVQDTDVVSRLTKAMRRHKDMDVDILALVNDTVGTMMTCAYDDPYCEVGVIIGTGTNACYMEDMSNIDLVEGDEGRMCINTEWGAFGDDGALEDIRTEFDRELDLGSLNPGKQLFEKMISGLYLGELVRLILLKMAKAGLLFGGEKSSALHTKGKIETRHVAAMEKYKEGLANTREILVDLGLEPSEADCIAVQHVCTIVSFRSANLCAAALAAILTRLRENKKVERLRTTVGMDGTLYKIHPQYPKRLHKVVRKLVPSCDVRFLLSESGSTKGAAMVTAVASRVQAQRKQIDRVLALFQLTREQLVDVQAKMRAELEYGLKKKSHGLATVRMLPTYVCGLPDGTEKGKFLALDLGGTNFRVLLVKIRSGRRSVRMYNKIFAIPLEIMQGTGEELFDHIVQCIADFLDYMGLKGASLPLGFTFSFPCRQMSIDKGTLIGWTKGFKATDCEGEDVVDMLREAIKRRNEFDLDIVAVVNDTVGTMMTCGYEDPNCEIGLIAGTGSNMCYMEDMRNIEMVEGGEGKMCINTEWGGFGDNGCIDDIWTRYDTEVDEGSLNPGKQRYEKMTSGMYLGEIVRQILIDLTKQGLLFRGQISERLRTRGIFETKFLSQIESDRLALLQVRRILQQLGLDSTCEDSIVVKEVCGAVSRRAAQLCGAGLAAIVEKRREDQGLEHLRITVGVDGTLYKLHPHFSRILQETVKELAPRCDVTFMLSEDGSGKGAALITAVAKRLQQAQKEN

Phospholipase D2 = Phospholipase D2 (Homo sapiens, UniProt O14939); assay: cellular phospholipase D2 inhibition IC50 – cell-based, dose response (AID 602147); assay type: functional;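 also: cellular assay in HEK293 cells overexpressing GFP-tagged PLD2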
Phospholipase D1 = Phospholipase D1 (Homo sapiens, UniProt Q13393); assay: cellular phospholipase D1 inhibition IC50 – cell-based, dose response (AID 602151); assay type: functional;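 also: cellular PLD1 assay in Calu-1 cells stimulated with PMA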
Phospholipase D1, sequence (Q13393 whole entry): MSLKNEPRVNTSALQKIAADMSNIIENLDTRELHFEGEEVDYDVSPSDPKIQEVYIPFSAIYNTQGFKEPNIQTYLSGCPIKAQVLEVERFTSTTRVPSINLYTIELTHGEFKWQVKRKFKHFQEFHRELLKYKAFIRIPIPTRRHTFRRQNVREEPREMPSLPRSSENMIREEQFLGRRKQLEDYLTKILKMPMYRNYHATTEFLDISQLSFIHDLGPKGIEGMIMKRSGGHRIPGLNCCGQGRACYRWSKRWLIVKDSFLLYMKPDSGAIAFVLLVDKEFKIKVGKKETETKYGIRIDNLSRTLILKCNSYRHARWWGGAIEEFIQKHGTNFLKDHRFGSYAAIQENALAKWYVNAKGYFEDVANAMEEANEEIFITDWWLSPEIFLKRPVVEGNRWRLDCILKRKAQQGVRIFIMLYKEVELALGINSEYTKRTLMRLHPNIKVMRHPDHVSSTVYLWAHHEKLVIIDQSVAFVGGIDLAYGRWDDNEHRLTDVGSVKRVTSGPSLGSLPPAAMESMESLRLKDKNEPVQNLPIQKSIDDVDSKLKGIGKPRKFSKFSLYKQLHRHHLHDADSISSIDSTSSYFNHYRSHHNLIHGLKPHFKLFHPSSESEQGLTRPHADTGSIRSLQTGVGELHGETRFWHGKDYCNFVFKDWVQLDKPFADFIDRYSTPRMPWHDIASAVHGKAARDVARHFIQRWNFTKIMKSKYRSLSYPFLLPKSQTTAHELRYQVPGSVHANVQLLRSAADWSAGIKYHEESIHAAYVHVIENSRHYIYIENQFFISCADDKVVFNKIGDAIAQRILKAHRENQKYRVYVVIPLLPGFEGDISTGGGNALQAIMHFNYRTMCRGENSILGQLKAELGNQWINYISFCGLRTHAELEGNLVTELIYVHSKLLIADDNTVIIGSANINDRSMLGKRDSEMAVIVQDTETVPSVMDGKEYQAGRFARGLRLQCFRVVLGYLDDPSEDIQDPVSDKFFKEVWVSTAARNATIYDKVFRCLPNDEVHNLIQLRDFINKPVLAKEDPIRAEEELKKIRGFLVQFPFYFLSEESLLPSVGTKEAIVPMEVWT

[4] = target: T2, Sentrin-specific protease 6 (Homo sapiens, UniProt Q9GZR1); assay: SAR Analysis of small molecule inhibitors of Sentrin-specific protease 6 (SENP6) using a Luminescent assay. [Related pubchem assays (depositor defined):AID2582, AID2599]; assay type: functional
T2 sequence (Q9GZR1 whole entry): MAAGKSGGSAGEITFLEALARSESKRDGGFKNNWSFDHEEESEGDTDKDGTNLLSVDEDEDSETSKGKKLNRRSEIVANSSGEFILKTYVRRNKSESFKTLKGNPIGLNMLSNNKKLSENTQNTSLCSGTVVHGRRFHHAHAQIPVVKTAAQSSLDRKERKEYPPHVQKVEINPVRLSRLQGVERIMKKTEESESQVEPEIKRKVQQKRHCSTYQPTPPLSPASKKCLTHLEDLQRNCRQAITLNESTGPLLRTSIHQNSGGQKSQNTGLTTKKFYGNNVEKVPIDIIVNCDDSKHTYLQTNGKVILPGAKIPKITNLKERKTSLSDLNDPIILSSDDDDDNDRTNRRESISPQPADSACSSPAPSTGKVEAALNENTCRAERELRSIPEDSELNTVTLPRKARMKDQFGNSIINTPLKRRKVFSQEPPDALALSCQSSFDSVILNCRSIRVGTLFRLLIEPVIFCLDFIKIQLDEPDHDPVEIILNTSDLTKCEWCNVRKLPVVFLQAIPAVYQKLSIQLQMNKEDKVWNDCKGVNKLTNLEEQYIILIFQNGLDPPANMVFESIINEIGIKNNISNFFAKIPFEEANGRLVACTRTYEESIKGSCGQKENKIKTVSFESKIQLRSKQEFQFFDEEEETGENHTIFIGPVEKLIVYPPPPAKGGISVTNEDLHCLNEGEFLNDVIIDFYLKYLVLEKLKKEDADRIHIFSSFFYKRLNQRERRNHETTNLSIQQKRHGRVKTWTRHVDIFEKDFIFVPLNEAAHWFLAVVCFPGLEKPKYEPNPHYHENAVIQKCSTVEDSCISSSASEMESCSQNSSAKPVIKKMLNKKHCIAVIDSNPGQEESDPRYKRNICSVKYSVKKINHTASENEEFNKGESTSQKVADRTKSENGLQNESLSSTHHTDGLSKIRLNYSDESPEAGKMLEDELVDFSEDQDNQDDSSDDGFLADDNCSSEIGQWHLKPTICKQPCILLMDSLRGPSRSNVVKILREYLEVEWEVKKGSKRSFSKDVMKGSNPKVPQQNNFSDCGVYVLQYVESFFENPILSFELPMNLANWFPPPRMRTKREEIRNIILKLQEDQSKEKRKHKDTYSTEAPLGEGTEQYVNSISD

[5] = target: T3, Sentrin-specific protease 7 (Homo sapiens, UniProt Q9BQF6); assay: inhibition of human SENP7 cleavage activity – biochemical, luminescence, SAR follow-up (AID 504497); assay type: functional
T3 sequence (Q9BQF6 whole entry): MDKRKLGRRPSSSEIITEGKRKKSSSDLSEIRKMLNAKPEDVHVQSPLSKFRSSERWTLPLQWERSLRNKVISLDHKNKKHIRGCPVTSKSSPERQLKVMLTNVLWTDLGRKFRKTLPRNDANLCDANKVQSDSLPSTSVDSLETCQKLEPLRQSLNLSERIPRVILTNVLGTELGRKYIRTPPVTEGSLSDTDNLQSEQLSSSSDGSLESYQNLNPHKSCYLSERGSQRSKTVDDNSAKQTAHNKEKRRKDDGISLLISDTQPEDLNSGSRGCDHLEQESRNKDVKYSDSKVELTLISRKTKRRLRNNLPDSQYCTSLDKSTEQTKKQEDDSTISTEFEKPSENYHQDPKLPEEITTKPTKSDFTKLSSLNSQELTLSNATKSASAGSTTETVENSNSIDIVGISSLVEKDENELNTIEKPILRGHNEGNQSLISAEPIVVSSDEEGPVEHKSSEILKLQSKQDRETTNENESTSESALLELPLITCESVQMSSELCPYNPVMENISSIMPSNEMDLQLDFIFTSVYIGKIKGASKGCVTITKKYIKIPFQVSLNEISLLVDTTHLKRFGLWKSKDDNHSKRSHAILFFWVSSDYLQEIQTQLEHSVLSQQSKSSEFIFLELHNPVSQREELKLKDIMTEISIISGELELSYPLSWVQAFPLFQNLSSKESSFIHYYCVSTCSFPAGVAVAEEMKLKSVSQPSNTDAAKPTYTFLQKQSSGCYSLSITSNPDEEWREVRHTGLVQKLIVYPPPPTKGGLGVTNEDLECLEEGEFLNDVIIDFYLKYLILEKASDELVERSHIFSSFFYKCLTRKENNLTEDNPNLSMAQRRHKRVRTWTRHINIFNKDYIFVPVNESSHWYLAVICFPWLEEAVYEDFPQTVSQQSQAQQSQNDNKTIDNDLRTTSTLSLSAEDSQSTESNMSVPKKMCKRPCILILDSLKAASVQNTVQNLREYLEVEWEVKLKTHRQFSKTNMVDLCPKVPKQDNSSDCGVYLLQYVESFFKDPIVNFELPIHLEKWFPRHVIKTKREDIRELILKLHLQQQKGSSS

Caspase-3 = target: T4, Caspase-3 (Homo sapiens, UniProt P42574); assay: SAR Analysis of small molecule inhibitors of Sentrin-specific proteases (SENPs) using a Caspase-3 Selectivity assay. [Related pubchem assays (depositor defined):AID2540, AID2599, AID434973, AID489001]; assay type: functional
T4 sequence (P42574 whole entry): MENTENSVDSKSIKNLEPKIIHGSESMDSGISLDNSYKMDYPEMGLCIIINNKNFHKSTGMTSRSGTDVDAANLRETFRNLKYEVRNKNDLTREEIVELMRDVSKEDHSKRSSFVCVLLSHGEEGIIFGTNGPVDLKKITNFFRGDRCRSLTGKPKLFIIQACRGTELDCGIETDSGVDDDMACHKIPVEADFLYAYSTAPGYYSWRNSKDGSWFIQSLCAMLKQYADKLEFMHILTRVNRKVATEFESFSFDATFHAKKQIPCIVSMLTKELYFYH

[6] = target: T5, Sentrin-specific protease 8 (Homo sapiens, UniProt Q96LD8); assay: inhibition of human SENP8 cleavage activity – biochemical, luminescence, SAR follow-up (AID 504501); assay type: functional
T5 sequence (Q96LD8 whole entry): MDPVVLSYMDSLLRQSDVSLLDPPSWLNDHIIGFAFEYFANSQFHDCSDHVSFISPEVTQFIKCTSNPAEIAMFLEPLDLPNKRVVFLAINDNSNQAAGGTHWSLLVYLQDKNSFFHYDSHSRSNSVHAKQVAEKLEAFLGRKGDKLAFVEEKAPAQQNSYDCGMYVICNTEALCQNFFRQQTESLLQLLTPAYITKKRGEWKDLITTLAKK

[7] = target: DNA dC->dU-editing enzyme APOBEC-3G (Homo sapiens, UniProt Q9HC16); assay: inhibition of APOBEC3G ssDNA deamination – biochemical, fluorescence, single-stranded DNA substrate, SAR follow-up (AID 602136); assay type: functional; details: read-out: IC50_Mean
DNA dC->dU-editing enzyme APOBEC-3G, sequence (Q9HC16 whole entry): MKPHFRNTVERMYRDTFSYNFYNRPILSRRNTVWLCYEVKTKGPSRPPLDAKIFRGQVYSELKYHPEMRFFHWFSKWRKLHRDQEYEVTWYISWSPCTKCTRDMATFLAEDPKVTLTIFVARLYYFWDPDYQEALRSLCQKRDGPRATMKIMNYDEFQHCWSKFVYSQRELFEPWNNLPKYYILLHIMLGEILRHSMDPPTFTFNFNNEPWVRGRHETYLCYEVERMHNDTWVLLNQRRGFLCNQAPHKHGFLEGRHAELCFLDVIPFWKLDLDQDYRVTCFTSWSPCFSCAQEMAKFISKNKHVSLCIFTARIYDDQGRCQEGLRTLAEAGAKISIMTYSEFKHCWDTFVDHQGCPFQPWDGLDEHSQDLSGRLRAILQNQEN

[8] = target: DNA dC->dU-editing enzyme APOBEC-3A (Homo sapiens, UniProt P31941); assay: SAR analysis of small molecule inhibitors of APOBEC3A DNA Deaminase via a fluorescence-based single-stranded DNA deaminase assay.; assay type: functional; details: read-out: IC50_Mean
[9] = target: Sphingosine 1-phosphate receptor 2 (Homo sapiens, UniProt O95136); assay: Late-stage fluorescence-based dose-response cell-based counterscreen assay to identify agonists of the Sphingosine 1-Phosphate Receptor 3 (S1P3): Sphingosine 1-Phosphate Receptor 2 (S1P2) agonist assay.; assay type: functional
Sphingosine 1-phosphate receptor 2, sequence (O95136 whole entry): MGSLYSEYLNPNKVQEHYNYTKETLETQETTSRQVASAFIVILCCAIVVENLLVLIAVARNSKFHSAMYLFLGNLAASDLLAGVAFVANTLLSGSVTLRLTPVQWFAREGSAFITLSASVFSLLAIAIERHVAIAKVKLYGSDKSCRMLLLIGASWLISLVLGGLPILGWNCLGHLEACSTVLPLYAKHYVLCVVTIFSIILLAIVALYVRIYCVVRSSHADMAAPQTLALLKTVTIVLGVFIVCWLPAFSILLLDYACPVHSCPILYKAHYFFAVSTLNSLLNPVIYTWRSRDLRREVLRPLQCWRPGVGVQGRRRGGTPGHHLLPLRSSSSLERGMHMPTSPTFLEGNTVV

[10] = target: Sphingosine 1-phosphate receptor 4 (Homo sapiens, UniProt O95977); assay: Late-stage fluorescence-based dose-response cell-based counterscreen assay to identify agonists of the Sphingosine 1-Phosphate Receptor 3 (S1P3): Sphingosine 1-Phosphate Receptor 4 (S1P4) agonist assay.; assay type: functional
Sphingosine 1-phosphate receptor 4, sequence (O95977 whole entry): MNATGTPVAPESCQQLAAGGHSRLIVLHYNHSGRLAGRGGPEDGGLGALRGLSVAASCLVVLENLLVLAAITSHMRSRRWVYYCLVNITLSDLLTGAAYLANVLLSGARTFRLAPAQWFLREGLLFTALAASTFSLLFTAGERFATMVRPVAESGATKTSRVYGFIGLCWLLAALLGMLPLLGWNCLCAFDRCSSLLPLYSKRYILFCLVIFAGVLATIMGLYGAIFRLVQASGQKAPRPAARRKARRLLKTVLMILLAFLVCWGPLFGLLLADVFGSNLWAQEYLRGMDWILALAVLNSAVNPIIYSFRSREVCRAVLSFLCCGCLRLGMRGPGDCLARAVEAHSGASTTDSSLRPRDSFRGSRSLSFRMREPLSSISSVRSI

HEK293 [11] = assay: HEK293T cell viability loss, resazurin readout – resazurin fluorescence, cytotoxicity control for NF-kB activator project, SAR follow-up (AID 493251); assay type: functional, cell-based; details: Homo sapiens
Jurkat = assay: SAR Analysis of small molecule inhibitors of both B-cell and T-cell specific antigen receptor-induced NF-kB activation in a Jurkat cell line using a luminescence assay. [Related pubchem assays (depositor defined):AID435003, AID435022, AID465, AID489029]; assay type: functional, cell-based; details: Homo sapiens
HEK293 [12] = assay: SAR Analysis of small molecule inhibitors of both B-cell and T-cell specific antigen receptor-induced NF-kB activation in a HEK-293T cell line using a luminescence assay. [Related pubchem assays (depositor defined):AID435003, AID435022, AID465, AID489019, AID489029]; assay type: functional, cell-based; details: Homo sapiens

Nuclear receptor subfamily 0 group B member 1, sequence (P51843 whole entry): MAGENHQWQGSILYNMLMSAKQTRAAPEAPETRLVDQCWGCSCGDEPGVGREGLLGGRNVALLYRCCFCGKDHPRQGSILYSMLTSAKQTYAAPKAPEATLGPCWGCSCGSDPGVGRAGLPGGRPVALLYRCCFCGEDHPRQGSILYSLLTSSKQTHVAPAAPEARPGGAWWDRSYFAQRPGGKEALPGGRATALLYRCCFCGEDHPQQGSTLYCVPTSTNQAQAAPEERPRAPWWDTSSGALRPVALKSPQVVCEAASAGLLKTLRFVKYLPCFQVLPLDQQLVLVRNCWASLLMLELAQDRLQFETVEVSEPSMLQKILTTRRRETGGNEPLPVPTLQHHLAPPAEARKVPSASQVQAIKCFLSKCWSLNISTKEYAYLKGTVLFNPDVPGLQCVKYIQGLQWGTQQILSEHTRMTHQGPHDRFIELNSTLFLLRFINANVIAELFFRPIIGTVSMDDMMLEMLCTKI

Question: How did the IC50 [1] turn out when `FC(F)(F)c1nnc2ccc(NCc3cccnc3)nn12` was run?
Answer: > 67.5 µM (inactive)

Question: What about the IC50 (HEK293 [2]) of the same compound?
Answer: 50.4 µM (inactive)

Question: Which AC50 [3] does the source give for `CCN(Cc1cccs1)c1ncnc2ccc(-c3ccc4c(c3)OCO4)cc12` here?
Answer: < 0.00195 µM (active)

Question: With `COc1cc2ccccc2cc1C(=O)OCC(=O)N(CC(C)C)c1c(N)n(Cc2ccccc2)c(=O)[nH]c1=O` as the compound, how does the AC50 (DNA topoisomerase) read?
Answer: 20.8 µM (active)

Question: What does the source list for `Cc1ccc(CSc2nnc(NC(=O)c3ccc4ncsc4c3)s2)cc1`?
Answer: IC50 (Hexokinase-1): > 80 µM (inactive); IC50 (Hexokinase HKDC1): > 80 µM (inactive)

Question: What does the source list for `O=C(NCCN1CCC(n2c(=O)[nH]c3ccccc32)CC1)c1cccc(F)n1`?
Answer: IC50 (Phospholipase D2): 1.3 µM (active); IC50 (Phospholipase D1): 0.19 µM (active)

Question: How did the IC50 [4] turn out when `CC(C)CC(=O)Nc1ccc(-c2nc3cc(Cl)ccc3o2)cc1` was run?
Answer: > 99 µM (inactive)

Question: What about the IC50 [5] of the same compound?
Answer: > 99 µM (inactive)

Question: And the IC50 (Caspase-3)?
Answer: 51.9 µM (active)

Question: What about the IC50 [6] of the same compound?
Answer: > 99 µM (inactive)

Question: `Cn1c(SCC(=O)N(Cc2ccccc2)Cc2ccco2)nnc1-c1ccc(F)cc1` was tested. Which IC50 [7] did it give?
Answer: > 99 µM (inactive)

Question: What about the IC50 [8] of the same compound?
Answer: > 99 µM (inactive)

Question: How did the EC50 [9] turn out when `CC1CCCCC1N(C(=O)c1cc(C2CC2)on1)C1CCCCC1` (centres undefined) was run?
Answer: > 50 µM (inactive)

Question: What about the EC50 [10] of the same compound?
Answer: > 50 µM (inactive)

Question: Which results are given for `Nc1cccc2cccnc12` [8-AMINOQUINOLINE]?
Answer: IC50 (HEK293 [11]): > 80 µM (inactive); IC50 (Jurkat): > 79 µM (inactive); IC50 (HEK293 [12]): > 79 µM (inactive)
